The target in one test is EED (Homo sapiens, UniProt O75530). Put plainly: EED TR-FRET Binding Assay (modified LanthaScreen competition assay). In a few lines: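 Competition binding in a modified LanthaScreen format, in 20 mM Tris-HCl pH 7.5, 200 mM NaCl, 0.01% Tween-20, 10 uM DTT and 0.05% BSA. Reactions ran 1 hour at 25° C before TR-FRET detection.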
(In general: Time-resolved FRET reads energy transfer from a long-lived donor to a nearby acceptor.)

Test [1] deals with H3K27me3 in OCILY19 cells. Put plainly: H3K27me3 AlphaLISA assay in OCILY19 cells. It is filed as cell-based. Particulars: Homo sapiens, OCI-LY19, 144 h, 6 days with compound, read-out: OCILY-19 IC50. How it is done: 5,000 cells were plated into each well of 96-well Corning CellBing cell culture plates and incubated overnight at 37° C. in a humidified CO2 incubator. […] The cell culture plates were then incubated for 6 more days. H3K27me3 AlphaLISA assay was performed on the cell culture samples by using AlphaLISAR® H3K27me3 Cellular Detection Kit (PerkinElmer) and 96-well white half-area plates (PerkinElmer).
Background: Alpha assays give light when donor and acceptor beads are brought close together.

In another test the test system is Pfeiffer cells. Put plainly: CTG cell viability assay (CellTiter-Glo). It is filed as cell-based. The note with it: Homo sapiens, 240 h. The protocol:
1,000 cells were plated into each well of 96-well Corning CellBing cell culture plates and incubated overnight at 37° C. in a humidified CO2 incubator. […] The cell culture plates were then incubated for 10 more days. CTG cell viability assay was performed on the cell culture samples by using CellTiter-Glo® Luminescent Cell Viability Assay Kit (Promega).
A general note: Cellular ATP, detected with luciferase, serves as a proxy for viable cell number.

Setting [2] is: Pfeiffer cells, 10 days with compound, CellTiter-Glo, read-out: Cell Proliferation IC50.

Our source for the IC50 values is patent publication US9957274B2, “Indane inhibitors of EED and methods of their use” (AbbVie Inc., priority 2016, dated 2018).

Where two headings read alike, the source gives them in different places.

Sequence of EED (O75530 whole entry): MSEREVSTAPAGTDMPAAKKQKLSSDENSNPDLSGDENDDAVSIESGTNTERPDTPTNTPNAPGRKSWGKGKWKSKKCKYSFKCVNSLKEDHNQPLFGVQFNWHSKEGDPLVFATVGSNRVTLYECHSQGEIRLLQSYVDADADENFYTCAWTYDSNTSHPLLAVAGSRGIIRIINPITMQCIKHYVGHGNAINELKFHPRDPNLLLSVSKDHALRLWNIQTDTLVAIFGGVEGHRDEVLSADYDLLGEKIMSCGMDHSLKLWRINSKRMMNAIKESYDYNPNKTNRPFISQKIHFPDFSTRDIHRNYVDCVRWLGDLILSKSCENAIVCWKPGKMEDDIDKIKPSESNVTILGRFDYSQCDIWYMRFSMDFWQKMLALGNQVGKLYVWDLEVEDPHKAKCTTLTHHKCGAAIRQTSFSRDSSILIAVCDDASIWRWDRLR

For the compound `CN1CCN(c2ccc([C@H]3CN(C4CCc5cccc(F)c54)C[C@@H]3N(C)C)cc2)CC1=O` (mixture of isomers) [Example 56, rac-4-{4-[(3S,4R)-4-(dimethylamino)-1-(7-fluoro-2,3-dihydro-1H-inden-1-yl)pyrrolidin-3-yl]phenyl}-1-methylpiperazin-2-one], the IC50 on EED is 0.00139 µM; in test [1], 0.556 µM; in the test with Pfeiffer cells (setting [2]) it was 0.145 µM.

In the case of `CN(C)C(=O)C(=O)N1CCN(c2ccc([C@@H]3CN(C4CCc5cccc(F)c54)C[C@H]3N(C)C)cc2)CC1` (mixture of isomers) [Example 59, rac-2-(4-{4-[(3R,4S)-4-(dimethylamino)-1-(7-fluoro-2,3-dihydro-1H-inden-1-yl)pyrrolidin-3-yl]phenyl}piperazin-1-yl)-N,N-dimethyl-2-oxoacetamide], the IC50 on EED is 0.00107 µM; in test [1], 0.163 µM; in the test on Pfeiffer cells (setting [2]) it was 0.127 µM.

`CN(C)[C@H]1CN(C2CCc3cccc(F)c32)C[C@@H]1c1ccc(N2CCN(C3CC3)CC2)cc1` (mixture of isomers) [Example 64, rac-(3R,4S)-4-[4-(4-cyclopropylpiperazin-1-yl)phenyl]-1-(7-fluoro-2,3-dihydro-1H-inden-1-yl)-N,N-dimethylpyrrolidin-3-amine]: the results for the IC50 (at EED; in test [1]; in the test on Pfeiffer cells (setting [2])) were 0.000835 µM, 0.334 µM and 0.166 µM, respectively.

On to `Cc1cc([C@H]2CN(C3CCc4cccc(F)c43)C[C@@H]2N(C)C)ccc1N1CCN(C)C(=O)C1` (mixture of isomers) [Example 58, rac-4-{4-[(3S,4R)-4-(dimethylamino)-1-(7-fluoro-2,3-dihydro-1H-inden-1-yl)pyrrolidin-3-yl]-2-methylphenyl}-1-methylpiperazin-2-one], for which the IC50 at EED is 0.00167 µM; in test [1], 0.376 µM; in the test with Pfeiffer cells (setting [2]), 0.314 µM.

Consider `CCS(=O)(=O)N1CCN(c2ccc([C@H]3CN(C4CCc5cccc(F)c54)C[C@@H]3N(C)C)cc2C)CC1` (mixture of isomers) [Example 62, rac-(3R,4S)-4-{4-[4-(ethanesulfonyl)piperazin-1-yl]-3-methylphenyl}-1-(7-fluoro-2,3-dihydro-1H-inden-1-yl)-N,N-dimethylpyrrolidin-3-amine], for which the IC50 at EED worked out at 0.00135 µM; in test [1], 0.282 µM; in the test on Pfeiffer cells (setting [2]), 0.429 µM.

In the case of `CN(C)[C@@H]1CN(C2CCc3cccc(F)c32)C[C@H]1c1ccc(N2CCN(C(=O)C(N)=O)CC2)cc1` (mixture of isomers) [Example 54, rac-2-(4-{4-[(3R,4S)-4-(dimethylamino)-1-(7-fluoro-2,3-dihydro-1H-inden-1-yl)pyrrolidin-3-yl]phenyl}piperazin-1-yl)-2-oxoacetamide], the IC50 at EED was 0.00106 µM; in test [1] it was 0.0991 µM; in the test on Pfeiffer cells (setting [2]), 0.114 µM.

With `CN1CCN(c2ccc([C@H]3CN(C4CCc5cccc(F)c54)C[C@@H]3N(C)C)cc2)CC1` (mixture of isomers) [Example 61, rac-(3R,4S)-1-(7-fluoro-2,3-dihydro-1H-inden-1-yl)-N,N-dimethyl-4-[4-(4-methylpiperazin-1-yl)phenyl]pyrrolidin-3-amine], the IC50 is 0.00114 µM on EED, 0.804 µM in test [1] and 0.204 µM with Pfeiffer cells (setting [2]).

With `CN(C)[C@H]1CN(C2CCc3cccc(F)c32)C[C@@H]1c1ccc(C(=O)N2CC[C@H](O)C2)cc1` (mixture of isomers) [Example 40, rac-{4-[(3S,4R)-4-(dimethylamino)-1-(7-fluoro-2,3-dihydro-1H-inden-1-yl)pyrrolidin-3-yl]phenyl}[(3S)-3-hydroxypyrrolidin-1-yl]methanone], the IC50 on EED is 0.00462 µM; in test [1], 1.08 µM; in the test with Pfeiffer cells (setting [2]), 0.941 µM.

On to `CN(C)[C@@H]1CN(C2CCc3cccc(F)c32)C[C@H]1c1ccc(N2CCN(S(=O)(=O)c3cn(C)cn3)CC2)cc1` (mixture of isomers) [Example 73, rac-(3S,4R)-1-(7-fluoro-2,3-dihydro-1H-inden-1-yl)-N,N-dimethyl-4-{4-[4-(1-methyl-1H-imidazole-4-sulfonyl)piperazin-1-yl]phenyl}pyrrolidin-3-amine], for which the IC50 on EED stood at 0.000825 µM; in test [1], 0.113 µM; with Pfeiffer cells (setting [2]), 0.0995 µM.

Take `CN(C)[C@H]1CN(C2CCc3cccc(Cl)c32)C[C@@H]1c1cn(C)c2ccccc12` (stereo partly drawn) [Example 89, (3R,4S)-1-(7-chloro-2,3-dihydro-1H-inden-1-yl)-N,N-dimethyl-4-(1-methyl-1H-indol-3-yl)pyrrolidin-3-amine]: the results for the IC50 (at EED; in test [1]; in the test on Pfeiffer cells (setting [2])) were 0.031 µM, 4.35 µM and 6.37 µM, respectively.

For the compound `CNC(=O)c1ccc([C@H]2CN(C3CCc4cccc(F)c43)C[C@@H]2N(C)C)cc1` (mixture of isomers) [Example 24, rac-4-[(3S,4R)-4-(dimethylamino)-1-(7-fluoro-2,3-dihydro-1H-inden-1-yl)pyrrolidin-3-yl]-N-methylbenzamide], the values for the IC50 (on EED; in test [1]; with Pfeiffer cells (setting [2])) were 0.0205 µM, 0.601 µM and 2.92 µM, respectively.

Turning to `CN(C)[C@@H]1CN(C2CCc3cccc(F)c32)C[C@H]1c1ccc(N2CCN(C(=O)CO)CC2)cc1` (mixture of isomers) [Example 52, rac-1-(4-{4-[(3R,4S)-4-(dimethylamino)-1-(7-fluoro-2,3-dihydro-1H-inden-1-yl)pyrrolidin-3-yl]phenyl}piperazin-1-yl)-2-hydroxyethan-1-one], the IC50 amounted to 0.001 µM at EED, 0.075 µM in test [1] and 0.0894 µM in the test on Pfeiffer cells (setting [2]).

`CN(C)[C@H]1CN([C@H]2CCc3cccc(F)c32)C[C@@H]1c1ccc(S(C)(=O)=O)cc1` [Example 11, (3R,4S)-1-[(1S)-7-fluoro-2,3-dihydro-1H-inden-1-yl]-4-[4-(methanesulfonyl)phenyl]-N,N-dimethylpyrrolidin-3-amine]: the IC50 was 0.0231 µM on EED, 0.171 µM in test [1] and 0.301 µM with Pfeiffer cells (setting [2]).

With `Cc1cc([C@H]2CN(C3CCc4cccc(F)c43)C[C@@H]2N(C)C)ccc1C#N` (mixture of isomers) [Example 37, rac-4-[(3S,4R)-4-(dimethylamino)-1-(7-fluoro-2,3-dihydro-1H-inden-1-yl)pyrrolidin-3-yl]-2-methylbenzonitrile], the IC50 was 0.00267 µM on EED, 0.874 µM in test [1] and 2.66 µM in the test with Pfeiffer cells (setting [2]).

Take `CN(C)[C@@H]1CN(C2CCc3cccc(F)c32)C[C@H]1c1ccc(N2CCN(C(=O)CNS(C)(=O)=O)CC2)nc1` (mixture of isomers) [Example 155, rac-N-[2-(4-{5-[(3R,4S)-4-(dimethylamino)-1-(7-fluoro-2,3-dihydro-1H-inden-1-yl)pyrrolidin-3-yl]pyridin-2-yl}piperazin-1-yl)-2-oxoethyl]methanesulfonamide]: the figures for the IC50 (on EED; in test [1]; in the test with Pfeiffer cells (setting [2])) were 0.00175 µM, 3.22 µM and 0.395 µM, respectively.

In the case of `CC(=O)N1CCN(c2ccc([C@H]3CN(C4CCc5cccc(F)c54)C[C@@H]3N(C)C)cc2)CC1` (mixture of isomers) [Example 44, rac-1-(4-{4-[(3S,4R)-4-(dimethylamino)-1-(7-fluoro-2,3-dihydro-1H-inden-1-yl)pyrrolidin-3-yl]phenyl}piperazin-1-yl)ethan-1-one], the IC50 on EED turned out to be 0.000652 µM; in test [1] it was 0.144 µM; in the test with Pfeiffer cells (Pfeiffer, read-out: Cell Proliferation IC50 (uM)), 0.0836 µM.

For `CN(C)C(=O)c1ccc([C@H]2CN(C3CCc4cccc(F)c43)C[C@@H]2N(C)C)cc1` (mixture of isomers) [Example 26, rac-4-[(3S,4R)-4-(dimethylamino)-1-(7-fluoro-2,3-dihydro-1H-inden-1-yl)pyrrolidin-3-yl]-N,N-dimethylbenzamide], the IC50 on EED is 0.00251 µM; in test [1], 1.36 µM; in the test with Pfeiffer cells (setting [2]), 3.03 µM.

Consider `CCS(=O)(=O)N1CCN(C(=O)c2cccc3c([C@H]4CN(C5CCc6cccc(F)c65)C[C@@H]4N(C)C)cn(C)c23)CC1` (mixture of isomers) [Example 130, rac-{3-[(3S,4R)-4-(dimethylamino)-1-(7-fluoro-2,3-dihydro-1H-inden-1-yl)pyrrolidin-3-yl]-1-methyl-1H-indol-7-yl}[4-(ethanesulfonyl)piperazin-1-yl]methanone], for which the IC50 on EED was 0.00105 µM; in test [1] it was 0.306 µM; with Pfeiffer cells (setting [2]), 0.311 µM.

On to `CN(C)C(=O)c1ccc([C@H]2CN(C3CCc4cccc(Cl)c43)C[C@@H]2N(C)C)cc1` (mixture of isomers) [Example 25, rac-4-[(3S,4R)-1-(7-chloro-2,3-dihydro-1H-inden-1-yl)-4-(dimethylamino)pyrrolidin-3-yl]-N,N-dimethylbenzamide], for which the IC50 was determined as 0.0182 µM on EED, 1.06 µM in test [1] and 2.93 µM with Pfeiffer cells (setting [2]).

Consider `CN(C)[C@H]1CN([C@@H]2C[C@H](F)c3cccc(F)c32)C[C@@H]1c1ccc(S(C)(=O)=O)cc1` (mixture of isomers) [Example 31, rac-(3R,4S)-1-[(1R,3S)-3,7-difluoro-2,3-dihydro-1H-inden-1-yl]-4-[4-(methanesulfonyl)phenyl]-N,N-dimethylpyrrolidin-3-amine], for which the IC50 came out at 0.00819 µM on EED, 3.45 µM in test [1] and 0.754 µM in the test on Pfeiffer cells (setting [2]).
